We go through two molecules from publication PMC3684959 (Chemistry & biology, 2013).

Structures are written as SMILES.

Assay [1] deals with T1, Arp3 (Arp2/3 complex) (Bos taurus, UniProt P61157). In words: X-ray co-crystal structure, […] Å, with CK-869 also bound. The format is binding.
Assay [2] deals with T1, Arp3 (Arp2/3 complex). The assay can be described thus: fluorescence titration of BtArp2/[…] complex with ε-ATP. It is filed as binding.

Consider `Nc1ncnc2c1ncn2[C@@H]1O[C@H](COP(=O)(O)OP(=O)(O)OP(=O)(O)O)[C@@H](O)[C@H]1O` [ATP], for which the “X-ray co-crystal structure, 2.5 Å, with CK-869 also bound” value on Arp3 (Arp2/3 complex) [1] was “show strong density for both ATP and CK-869 bound to Arp3 subunit”.

Turning to `O=P(O)(O)OP(=O)(O)OP(=O)(O)OC[C@H]1O[C@@H](n2cnc3c2ncn2ccnc32)[C@H](O)[C@@H]1O` [ε-ATP], the Kd (in general, the free concentration of one partner at which half of the binding sites on the other are occupied at equilibrium, for simple one-to-one binding) on Arp3 (Arp2/3 complex) [2] came out at 3 ± 0.4 µM.
